# Measured values published in PMC5660261 (Frontiers in Pharmacology, 2017).
# What was measured:
# human GPR55 = target: T1, human GPR55 (Homo sapiens, UniProt Q9Y2T6); experiment: Forskolin-induced intracellular cAMP determination in HEK-293T cells expressing GPR55; assay type: cell-based
# T1 construct: expressed in transfected cells; host or cells: HEK-293T, transient transfection
# Method: Two hours before initiating the experiment, growth medium was replaced by serum-free DMEM. Then, HEK-293T cells transiently expressing CB2R or GPR55 were detached and resuspended in growing medium containing 50 μM zardaverine and plated in 384-well microplates (2,500 cells/well), pretreated (15 min) with the corresponding antagonists—or vehicle—and stimulated with agonists (15 min) before adding 0.5 μM forskolin or vehicle. Readings were performed after 15 min of incubation at 25°C. HTRF measures were performed using the Lance Ultra cAMP kit (PerkinElmer, Waltham, MA, United States). Fluorescence at 665 nm was analyzed on a PHERAstar Flagship microplate reader equipped with an HTRF optical module (BMG Lab Technologies, Offenburg, Germany).
# human CB2R [1] = target: T2, human CB2R (Homo sapiens, UniProt P34972); experiment: HTRF (Tag-lite) competition binding of red CB2R ligand in living HEK-293T cells expressing SNAP-CB2R; details: 100 nM red CB2R ligand, low nanomolar CBD concentrations
# T2 construct: host or cells: HEK-293T, transient transfection, living cells
# T2 sequence (P34972 whole entry): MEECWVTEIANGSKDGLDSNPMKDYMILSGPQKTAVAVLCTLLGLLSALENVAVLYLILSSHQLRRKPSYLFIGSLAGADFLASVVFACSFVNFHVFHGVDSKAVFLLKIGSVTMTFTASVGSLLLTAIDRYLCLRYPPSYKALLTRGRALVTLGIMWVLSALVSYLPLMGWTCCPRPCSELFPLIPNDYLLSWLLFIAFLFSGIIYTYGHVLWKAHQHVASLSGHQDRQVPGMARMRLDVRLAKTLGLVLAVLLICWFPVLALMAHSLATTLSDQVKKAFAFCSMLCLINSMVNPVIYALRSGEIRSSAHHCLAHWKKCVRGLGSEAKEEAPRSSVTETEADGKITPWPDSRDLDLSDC
# human CB2R [2] = target: T2, human CB2R; experiment: Forskolin-induced intracellular cAMP determination in HEK-293T cells expressing CB2R; assay type: cell-based
# human CB2R [3] = target: T2, human CB2R; experiment: HTRF (Tag-lite) saturation binding of red CB2R ligand in living HEK-293T cells expressing SNAP-CB2R
# T1 sequence (Q9Y2T6 whole entry): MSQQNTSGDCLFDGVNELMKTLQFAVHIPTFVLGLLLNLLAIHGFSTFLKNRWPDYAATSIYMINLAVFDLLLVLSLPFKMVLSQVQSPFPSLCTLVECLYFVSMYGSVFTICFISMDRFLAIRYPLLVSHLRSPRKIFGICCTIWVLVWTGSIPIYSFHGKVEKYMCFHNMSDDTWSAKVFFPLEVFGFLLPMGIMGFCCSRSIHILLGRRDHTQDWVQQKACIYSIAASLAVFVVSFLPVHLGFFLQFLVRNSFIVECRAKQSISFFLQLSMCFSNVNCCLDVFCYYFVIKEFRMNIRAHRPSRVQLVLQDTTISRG
molecule,measurement,setting,value
"C=C(C)[C@@H]1CCC(C)=C[C@H]1c1c(O)cc(CCCCC)cc1O [CBD, cannabidiol]",cAMP response to combined treatment with CBD and JWH133,"human GPR55; 100 nM JWH133, HEK-293T transiently transfected with GPR55",not significantly different than that achieved by CBD alone
same,cAMP signal of compound alone,human GPR55; HEK-293T cells expressing human GPR55,results were similar to those in cells expressing the CB2R
same,reduction of fluorescent agonist binding,human CB2R [1],circa 25%
same,G-protein-coupled signal (cAMP) of compound alone,"human CB2R [2]; concentration range 1–1,000 nM, no agonist, HEK-293T cells expressing human CB2R",did not significantly engage any G-protein-coupled signal
CCCC(C)(C)c1ccc2c(c1)OC(C)(C)[C@@H]1CC=C(C)C[C@@H]21 [JWH133],Agonist-induced reduction in cAMP,"human CB2R [2]; 100 nM JWH133, data given in percentage of the 500 nM forskolin-induced cAMP concentration",31 ± 4
SR144528,effect on maximum binding (Bmax) of red CB2R ligand,human CB2R [3],reduced Bmax values
